One may read the IC50 as the point on the concentration scale where inhibition reaches its midpoint. Broadly, the inhibition in vivo is the share of the control response that was lost under treatment. The term inhibition denotes how much of the control response was suppressed.

Active and inactive are the calls of the source. The rule behind the calls is not given here.

Data set [1] concerns A549. As to the kind of experiment: Upregulation of Bax protein expression in human A549 cells at 1.25 to 5 uM incubated for 12 hrs by Western blot analysis. Format: functional, cell-based. Particulars: dose 1.25-5 µM. Background: In western blotting, separated proteins are transferred to a membrane and probed.
For data set [2], the system named is A549. As to the kind of experiment: Induction of apoptosis in human A549 cells assessed as downregulation of p-Akt level incubated for 12 hrs by Western blot analysis. The format is functional, cell-based. Particulars: dose 1.25-5 µM, DDE = dose-dependent effect.
The subject of data set [3] is A549. As to the kind of experiment: Induction of cell cycle arrest in human A549 cells assessed as accumulation of cells at G0/G1 phase measured after 24 hrs by PI staining based flow cytometry analysis. The format is functional. Particulars: dose 0.1-0.4 µM, DDE = dose-dependent effect.
Data set [4] addresses T1, Hsp90 co-chaperone Cdc37 (Homo sapiens) (UniProt Q16543).
T1 sequence (whole entry): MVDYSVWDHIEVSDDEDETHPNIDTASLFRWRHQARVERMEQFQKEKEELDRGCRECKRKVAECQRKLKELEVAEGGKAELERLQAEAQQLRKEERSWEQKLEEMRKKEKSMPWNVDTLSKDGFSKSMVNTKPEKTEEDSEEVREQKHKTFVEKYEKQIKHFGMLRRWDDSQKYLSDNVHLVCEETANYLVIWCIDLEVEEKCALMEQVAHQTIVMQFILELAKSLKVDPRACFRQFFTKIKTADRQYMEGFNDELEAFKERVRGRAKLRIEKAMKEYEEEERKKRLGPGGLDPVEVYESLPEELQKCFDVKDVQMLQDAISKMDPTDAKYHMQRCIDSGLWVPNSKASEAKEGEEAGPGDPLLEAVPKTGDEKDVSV
As to the kind of experiment: Binding affinity to Cdc37 (unknown origin) at 80 uM by UV-Vis spectrophotometric analysis.

Data set [5] relates to A549. As to the kind of experiment: Induction of apoptosis in human A549 cells assessed as total apoptotic cells at 0.2 uM incubated for 48 hrs Annexin V-FITC/propidium iodide staining based flow cytometry relative to control. The format is functional.
Data set [6] deals with HCT-116. As to the kind of experiment: Antiproliferative activity against human HCT-116 cells assessed as inhibition of cell growth incubated for 48 hrs by MTT assay. The format is functional, cell-based. Particulars: HCT-116, 48 h.
A short description of data set [7]: Thiol reactivity of the compound with DTT by 1H-NMR analysis. The format is physicochemical.
For data set [8], the system named is A549. As to the kind of experiment: Antiproliferative activity against human A549 cells expressing Hsp90-Cdc37 protein assessed as inhibition of cell growth incubated for 48 hrs by MTT assay. The format is functional, cell-based. Conditions: A549, 48 h. (In general: Formazan colour is commonly taken as a measure of viable cells.)
The test system of data set [9] is A549. As to the kind of experiment: Antitumor activity against human A549 cells xenografted in BALB/c mouse lung tumor model assessed as tumor inhibition rate at 0.5 mg/kg, ip measured every day for 21 days by caliper method relative to control. Conditions: A549, 504 h, time 21 day. The format is functional. For orientation: Xenograft models place foreign cells or tissue in a host animal.

Data set [10] can be described thus: Toxicity in BALB/c mouse xenografted with human A549 cells assessed as reduction in body weight at 0.5 to 1 mg/kg, ip measured for 21 days. Format: organism-based. Conditions: in vivo, 504 h, dose 0.5-1 mg/kg, time 21 day.
Data set [11] deals with A549. As to the kind of experiment: Induction of apoptosis in human A549 cells assessed as total apoptotic cells at 0.4 uM incubated for 48 hrs Annexin V-FITC/propidium iodide staining based flow cytometry relative to control. The format is functional.
Data set [12] has as its system A549. As to the kind of experiment: Upregulation of cleaved capase-3 expression in human A549 cells at 1.25 to 5 uM incubated for 12 hrs by Western blot analysis. Particulars: dose 1.25-5 µM. The format is functional, cell-based.
Data set [13] concerns A549. As to the kind of experiment: Induction of apoptosis in human A549 cells at 0.1 to 0.4 uM incubated for 48 hrs by Hoechst33342 staining based fluorescence microscopic analysis. Conditions: dose 0.1-0.4 µM. Format: functional, cell-based.
Data set [14] has as its system A549. As to the kind of experiment: […] of Bcl-2 protein expression in human A549 cells at 1.25 to 5 uM incubated for 12 hrs by Western blot analysis. The format is functional, cell-based. Particulars: dose 1.25-5 µM.
Data set [15] has as its system A549. As to the kind of experiment: Induction of apoptosis in human A549 cells assessed as total apoptotic cells at 0.8 uM incubated for 48 hrs Annexin V-FITC/propidium iodide staining based flow cytometry relative to control. The format is functional.
In data set [16] the test system is A549. As to the kind of experiment: Induction of apoptosis in human A549 cells assessed as downregulation of Cdk4 level incubated for 12 hrs by Western blot analysis. The format is functional, cell-based. Conditions: dose 1.25-5 µM, DDE = dose-dependent effect.
The subject of data set [17] is A549. As to the kind of experiment: Antiproliferative activity against human A549 cells expressing Cdc37 protein assessed as inhibition of cell growth incubated for 48 hrs by MTT assay. The format is functional, cell-based. Particulars: A549, 48 h.
The test system of data set [18] is MDA-MB-231. As to the kind of experiment: Antiproliferative activity against human MDA-MB-231 cells assessed as inhibition of cell growth incubated for 48 hrs by MTT assay. The format is functional, cell-based. Conditions: MDA-MB-231, 48 h.
The test system of data set [19] is A549. As to the kind of experiment: Antitumor activity against human A549 cells xenografted in BALB/c mouse lung tumor model assessed as tumor inhibition rate at 1 mg/kg, ip measured every day for 21 days by caliper method relative to control. Particulars: A549, 504 h, time 21 day. Format: functional.
For data set [20], the target named is Heat shock protein HSP90 (Homo sapiens) (UniProt P07900+P08238). As to the kind of experiment: Binding affinity to Hsp90 (unknown origin) at 80 uM by UV-Vis spectrophotometric analysis. The format is protein assay.
Data set [21] concerns U2OS. As to the kind of experiment: Antiproliferative activity against human U2OS cells assessed as inhibition of cell growth incubated for 48 hrs by MTT assay. The format is functional, cell-based.
Data set [22] concerns A549. As to the kind of experiment: Antiproliferative activity against human A549 cells assessed as inhibition of cell growth incubated for 48 hrs by MTT assay. Format: functional, cell-based. Conditions: A549, 48 h.
Data set [23] deals with A549. As to the kind of experiment: Antiproliferative activity against human A549 cells expressing Hsp90 protein assessed as inhibition of cell growth incubated for 48 hrs by MTT assay. Particulars: A549, 48 h. Format: functional, cell-based.
Data set [24] relates to A549. As to the kind of experiment: Inhibition of Hsp90-Cdc37 complex in human A549 cells assessed as decrease in Hsp90-Cdc37 protein level at 10 uM incubated for 6 hrs by co-immunoprecipitation assay relative to CEL. The format is cell-based.
Data set [25] in a line: Stability of the compound in PBS/MeOH buffer by HPLC analysis. Format: physicochemical.
The test system of data set [26] is A549. As to the kind of experiment: Upregulation of cleaved PARP expression in human A549 cells at 1.25 to 5 uM incubated for 12 hrs by Western blot analysis. Format: functional, cell-based. Particulars: dose 1.25-5 µM.
Data set [27] has as its system A549. As to the kind of experiment: Antitumor activity against human A549 cells xenografted in BALB/c mouse lung tumor model assessed as tumor weight at 1 mg/kg, ip measured every day for 21 days by caliper method. The format is functional. Conditions: time 21 day.

`CC1=C(O)C(=O)C=C2C1=CC=C1[C@@]2(C)CC[C@@]2(C)[C@@H]3C[C@](C)(C(=O)OCCCn4cc([N+](=O)[O-])nc4Cl)CC[C@]3(C)CC[C@]12C`: the result in data set [1], in data set [4], in [12], in data set [13], in data set [14] and in data set [20] was Active. Further, in data set [26], the result was Active. In addition, the Activity result in [2] is “Dde”; in data set [3], “Dde”; in data set [5] it was 9%; in [7] it was “Active”; in data set [10] it was “Non-Toxic”; in data set [11], 11.7%. Besides, the values for the Activity in data set [15], in data set [16] and in data set [27] were 29.9%, “Dde” and 0.46 g, respectively. For the same compound, the 50% inhibitory concentration (IC50) in [6] is 590 nM; in [8], over 100000 nM; in data set [17] it was over 100000 nM; in data set [18] it was 570 nM; in data set [21], 570 nM; in [22], 540 nM. The IC50 in [23] was over 100000 nM. The inhibition in vivo at 0.5 mg/kg in data set [9] came to 54.1%. For the same compound, the inhibition in vivo at 1 mg/kg in data set [19] turned out to be 68.3%. In addition, the inhibition in data set [24] came to 33.3%. Besides, the Stability result in data set [25] is recorded as “Stable”.

As to `CC1=C(O)C(=O)C=C2C1=CC=C1[C@@]2(C)CC[C@@]2(C)[C@@H]3C[C@](C)(C(=O)O)CC[C@]3(C)CC[C@]12C` [CELASTROL], the IC50 in data set [6] is 1810 nM; in data set [8] it was over 100000 nM; in [17], over 100000 nM; in data set [18], 1980 nM; in data set [21], 1860 nM; in data set [22], 1680 nM. In addition, the IC50 in [23] was over 100000 nM. Further, the inhibition in vivo at 1 mg/kg in [19] was 52.7%. Also, in [27], the Activity is on record as 0.67 g.

The values above are taken from ChEMBL document CHEMBL5154774, “Discovery of Novel Celastrol-Imidazole Derivatives with Anticancer Activity In Vitro and In Vivo” (J Med Chem, 2022).
